Several values for one entry are separate records, joined by “and”; a condition that tells them apart may be missing. Equal entries are not always repeated.
Experiments:
Type in all cases: in vivo
[1] = system: 60% high fat Paigen diet induced NASH mouse model; experiment: Short-term Paigen-diet NASH mouse model: liver Oil Red O staining; conditions: 21 days
Protocol: To investigate whether Compound #37 prevents the development of pathology associated with NASH and steatosis in an acute exploratory disease model, a study was conducted using a diet-induced acute liver steatosis model in mice. As described below, in this study, C57BL/6J mice were initiated on the Paigen diet and simultaneously treated with Compound #37 (5, 20, and 40 mg/kg/day) or vehicle control (20% HPβCD 10 mL/kg/day) by oral gavage for 21 days.
After acclimation, 8-week old male C57Bl/6J mice (Charles River) weighing about 25 g were randomized in 4 groups according their body weight and treated once daily around noon by oral gavage with vehicle, or Compound #37 at various for 21 days as follows: Group 1: vehicle-20% (2-hydroxypropyl)-β-cyclodextrin (HP-β-CD) (n=10); Group 2: Compound #37, 5 mg/kg (n=10) Group 3: Compound #37, 20 mg/kg (n=10) Group 4: Compound #37, 40 mg/kg (n=10). During the treatment period, body weight and food intake (measured over 24h) were measured 3 times per week and once a week, respectively. During the acclimation, all mice were fed a standard diet (Special Diets Services RM1 (E), product no. 801492) and tap water ad libitum. After the acclimation period, mice were fed until the end of the experiment with a 60% high fat Paigen diet (60 kcal % fat, 1.25% cholesterol, and 0.5% cholate; D11061901, Research Diet) and tap water ad libitum.
One 0.5 cm^3 piece of liver was frozen in OCT in isopentane and stored at −80° C. for neutral lipid coloration with quantification to evaluate accumulation of neutral lipids in the liver. One section (thickness 5-7 μm) per block was deposited on superfrost+slides for Red Oil staining. Red Oil-stained slides were digitalized at ×20 with the Nanozoomer 2.0 HT. Red Oil labeling was quantified (surface, density): the stained slides were analyzed using an image. All the samples were analyzed within the same range of labeling intensity (0-130), allowing comparison between animals. The intensity scale ranged from 0 to 255 grey levels, in which 0 is the value of a black pixel, and 255 is the value of a white pixel. The staining intensity was calculated as the mean intensity of each pixel composing the labeling signal. For each slide, the percentage (%) of labeling was also calculated: %=(Surface of labeling*100)/section area.

[2] = system: diet-induced NASH obese insulin resistant mice; experiment: DIN mouse model: blood glucose, plasma insulin, HOMA-IR; conditions: for HOMA-IR index reduction / HOMA-IR day 0 / blood glucose day 0 / plasma insulin day 0: 20 mg/kg; for HOMA-IR day 0 / blood glucose day 0 / plasma insulin day 0: day 0 (baseline); for HOMA-IR day 42 / blood glucose day 42 / plasma insulin day 42: day 42, 20 mg/kg; for HOMA-IR day 70 / blood glucose day 70 / plasma insulin day 70: day 70, 20 mg/kg;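 as to blood glucose day 0: blood glucose in mg/dL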;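 as to blood glucose day 42: blood glucose in mg/dL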;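 as to blood glucose day 70: blood glucose in mg/dL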
Protocol: (§1) Male C57Bl/6J mice (8 weeks old) were housed in enriched ventilated cages (31×12.5×12.7 cm) throughout the experimental phase. Animals' cages litters were changed at least once a week. Animal were housed 5 per cage on inverted 12-hour light cycle (at 09:00 am lights off), 22±2° C. and 55±10% relative humidity. The acclimation period was 20 days. During the acclimation period, all mice were fed a standard diet (RM1 (E) 801492, SDS) and tap water ad libitum. After the acclimation period, mice were fed with the DIN diet (60% fat, cholesterol enriched) and fructose-enriched tap water ad libitum until the end of the experiment.
(§2) At 6 weeks of diet, mice were 4-hour fasted (09:00 am to 1:00 pm) and blood (150 μl/EDTA) was collected at 01:00 pm by retro-orbital bleeding under isoflurane anesthesia. Mice were then allocated in 2 homogenous groups (n=12/group) according to their plasma levels of ALT (average levels: 685U/L), AST (average levels: 627U/L) and HOMA-IR index (average value: 4.7), into 2 homogenous groups (see values at day 0 in Tables 15A and 15B ALT/AST and Tables 16A and 16B for HOMA-IR). Mice were then treated once daily by oral gavage with vehicle (Group 1) or Compound #37 at 20 mg/kg (Group 2) for 70 days.
To investigate whether Compound #37 improves pre-existing steatosis/NASH pathology, a study was conducted using a 16-week diet-induced NASH mouse model. In this model, mice develop steatosis that progresses with inflammation and fibrosis that mimic many of the observed pathologies in human nonalcoholic fatty liver disease (NAFLD) and NASH (Hebbard & George, 2010). For 6 weeks, mice were fed a high-fat, high-cholesterol diet and provided drinking water containing fructose to induce liver pathology (Charlton et al, 2011). After 6 weeks, the mice were divided into 2 groups with similar mean aspartate aminotransferase (AST) and alanine aminotransferase (ALT) values (n=12 mice), although it should be noted that AST and ALT concentrations within both groups were higher and with greater variability than anticipated (e.g., mean ALT 677 U/L [SD, 401 U/L] in the vehicle control group and 693 U/L [SD, 365 U/L] in the Compound #37 group). After the animals were divided into 2 groups, the diet was continued for 10 additional weeks during which time 1 group received vehicle and the other was treated with 20 mg/kg/day Compound #37.

MCP-1 = experiment: DIN mouse model: hepatic MCP-1 gene expression; conditions: liver, 20 mg/kg group
Protocol: Gene expression analysis. Hepatic expression levels of genes involved in lipid metabolism (FAS, SREBP1, ACC1, SCD1), cholesterol metabolism (HMG-CoAR, LDLR), SREBP proteolysis (SCAP, INSIG1), ER stress (PERK), oxidative stress (NRF2), inflammation (MCP-1), and fibrosis (collagen 1α1) were quantified by RTqPCR. Expression level was normalized to 18S gene expression and relative expression to vehicle group was calculated with the […] method.
as §1, §2
Hepatic expression levels of genes involved in lipid (FAS, SREBP1, ACC1, SCD1), cholesterol metabolism (HMG-CoAR, LDLR), in SREBP proteolysis (SCAP, INSIG1), in ER stress (PERK), oxidative stress (NRF2), and inflammation (MCP-1) were not changed. However, expression of collagen 1α1, involved in liver fibrosis, was reduced by 66% in mice treated with Compound #37 (p<0.05 vs. vehicle).

[3] = individual animals, vs vehicle mean, 20 mg/kg

For CC(C)Cc1cc(-c2nc(-c3ccc(NS(=O)(=O)C(F)(F)F)cc3Cl)cs2)ccn1 [Compound 37, N-(3-chloro-4-(2-(2-isobutylpyridin-4-yl)thiazol-4-yl)phenyl)-1,1,1-trifluoromethanesulfonamide], the “Liver O red Oil staining, % labeling” value ([1]; 5 mg/kg p.o. daily, group mean) was 1.50%, the “Liver O red Oil staining, % labeling” value ([1]; 5 mg/kg p.o. daily, individual animals) was 2.08% and 2.02% and 1.19% and 2.18% and 1.64% and 1.09% and 1.16% and 1.50% and 0.70% and 1.39% and the “Liver O red Oil staining, % labeling” value ([1]; 20 mg/kg p.o. daily, group mean) was 0.93%. For the same compound, the “Liver O red Oil staining, % labeling” value ([1]; 20 mg/kg p.o. daily, individual animals) was 1.53% and 0.81% and 0.29% and 1.11% and 0.92% (2×), the HOMA-IR index reduction ([2]; day 42, not significant) was 50% and the HOMA-IR index reduction ([2]; day 70, not significant) was 40%. The “HOMA-IR day 0” value ([2]; group mean, n 12) was 4.8 [mM × μU/mL]/22.5, the “blood glucose day 0” value ([2]; group mean, n 12) was 104 mg/dL and the “plasma insulin day 0” value ([2]; group mean, n 12) was 17 μU/mL. For the same compound, the “HOMA-IR day 0” value ([2]; individual animals) was 2.7 [mM × μU/mL]/22.5 and 4.1 [mM × μU/mL]/22.5 and 23.6 [mM × μU/mL]/22.5 and 2.1 [mM × μU/mL]/22.5 (2×) and 2.3 [mM × μU/mL]/22.5 (2×) and 1.9 [mM × μU/mL]/22.5 and 1.8 [mM × μU/mL]/22.5 and 3.8 [mM × μU/mL]/22.5 and 1.6 [mM × μU/mL]/22.5 and 8.8 [mM × μU/mL]/22.5, the “blood glucose day 0” value ([2]; individual animals) was 97 mg/dL and 113 mg/dL (2×) and 123 mg/dL and 106 mg/dL and 79 mg/dL and 95 mg/dL and 114 mg/dL and 102 mg/dL and 89 mg/dL and 112 mg/dL and 103 mg/dL and the “plasma insulin day 0” value ([2]; individual animals) was 11.3 μU/mL and 14.7 μU/mL and 77.6 μU/mL and 8.1 μU/mL and 11.9 μU/mL and 6.9 μU/mL and 7.5 μU/mL (2×) and 13.6 μU/mL and 8.4 μU/mL and 31.9 μU/mL and 9 μU/mL. The “HOMA-IR day 42” value ([2]; group mean, n 12) was 3.7 [mM × μU/mL]/22.5, the “blood glucose day 42” value ([2]; group mean, n 12) was 133 mg/dL and the “plasma insulin day 42” value ([2]; group mean, n 12) was 11.5 μU/mL. The “HOMA-IR day 42” value ([2]; individual animals) was 3.8 [mM × μU/mL]/22.5 (2×) and 3.3 [mM × μU/mL]/22.5 and 5.0 [mM × μU/mL]/22.5 and 7.7 [mM × μU/mL]/22.5 and 2.8 [mM × μU/mL]/22.5 (3×) and 1.9 [mM × μU/mL]/22.5 and 3.7 [mM × μU/mL]/22.5 and 3.5 [mM × μU/mL]/22.5 and 3.4 [mM × μU/mL]/22.5, the “blood glucose day 42” value ([2]; individual animals) was 133 mg/dL and 139 mg/dL (2×) and 112 mg/dL and 126 mg/dL and 128 mg/dL and 132 mg/dL and 131 mg/dL and 138 mg/dL and 151 mg/dL and 140 mg/dL and 127 mg/dL and the “plasma insulin day 42” value ([2]; individual animals) was 11.6 μU/mL and 9.5 μU/mL and 18.0 μU/mL and 24.8 μU/mL and 8.9 μU/mL and 11.8 μU/mL and 5.8 μU/mL and 8.2 μU/mL (2×) and 10.0 μU/mL and 10.2 μU/mL and 10.7 μU/mL. The “HOMA-IR day 70” value ([2]; group mean, n 11) was 4.5 [mM × μU/mL]/22.5, the “blood glucose day 70” value ([2]; group mean, n 11) was 130 mg/dL and the “plasma insulin day 70” value ([2]; group mean, n 11) was 13.7 μU/mL. The “HOMA-IR day 70” value ([2]; individual animals) was 7.5 [mM × μU/mL]/22.5 and 2.6 [mM × μU/mL]/22.5 and 6.0 [mM × μU/mL]/22.5 and 5.8 [mM × μU/mL]/22.5 and 3.9 [mM × μU/mL]/22.5 and 2.8 [mM × μU/mL]/22.5 and 6.5 [mM × μU/mL]/22.5 and 2.5 [mM × μU/mL]/22.5 and 3.8 [mM × μU/mL]/22.5 and 3.1 [mM × μU/mL]/22.5 and 4.5 [mM × μU/mL]/22.5, the “blood glucose day 70” value ([2]; individual animals) was 138 mg/dL and 132 mg/dL and 135 mg/dL and 157 mg/dL and 136 mg/dL and 124 mg/dL and 127 mg/dL and 100 mg/dL and 114 mg/dL and 130 mg/dL and 141 mg/dL and the “plasma insulin day 70” value ([2]; individual animals) was 21.9 μU/mL and 8.0 μU/mL and 18.1 μU/mL and 15.1 μU/mL and 11.5 μU/mL and 9.3 μU/mL and 20.6 μU/mL and 10.3 μU/mL and 13.4 μU/mL and 9.8 μU/mL and 12.9 μU/mL. The “MCP-1 Dct” value (MCP-1; individual animals, normalised to 18S, 20 mg/kg) was 14.34 and 13.63 and 15.61 and 13.59 and 13.54 and 13.66 and 14.89 and 16.32 and 15.5 and 15.74 and 11.79, the “MCP-1 2^DDct” value (MCP-1; [3]) was 0.61 and 0.99 and 0.25 and 1.02 and 1.06 and 0.97 and 0.41 and 0.15 and 0.27 and 0.23 and 3.55 and the “MCP-1 DDct” value (MCP-1; [3]) was 0.72 and 0.01 and 1.99 and −0.03 and −0.08 and 0.04 and 1.27 and 2.7 and 1.88 and 2.12 and −1.83. For the same compound, the “MCP-1 (Ct)” value (MCP-1; individual animals, 20 mg/kg) was 26.89 and 26.18 and 28.45 and 26.02 and 25.89 and 26.25 and 26.62 and 28.83 and 27 and 27.29 and 24.14, the “MCP-1 2^DDct” value (MCP-1; mean, n 11) was 0.87 and the “MCP-1 (Ct)” value (MCP-1; mean, n 11) was 26.7. For the same compound, the “MCP-1 DDct” value (MCP-1; mean, n 11) was 0.80 and the “MCP-1 Dct” value (MCP-1; mean, n 11) was 14.4.
